Measurements from patent US9902728B2, “Pyrrolo and pyrazolopyrimidines as ubiquitin-specific protease 7 inhibitors” (Forma Therapeutics, Inc., priority 2014, dated 2018).

The compounds below were run against T1, USP7 (Homo sapiens, UniProt Q93009) (assay: USP7 Assay A (Ubitquin-Rhodamine 110 Assay)). Details: USP7 assay A and B (table does not say which assay per compound); read-out: USP7_IC50.
T1 construct: USP7, construct USP7 (208-1102) 6*His, Viva Biotech; 6xHis (C); purchased Viva Biotech
Assay type: biochemical
Description: Each assay was performed in a final volume of 15 μL in assay buffer containing 20 mM Tris-HCl (pH 8.0, (1M Tris-HCl, pH 8.0 solution; Corning 46-031-CM)), 1 mM GSH (L-Glutathione reduced; Sigma #G4251), 0.03% BGG ([…], Sigma, #G7516-25G), and 0.01% Triton X-100 (Sigma, #T9284-10L). […] 5 μL of 2× enzyme was added to assay plates (pre-stamped with compound) preincubated with USP7 for 30 minutes and then 5 μL of 2×Ub-Rh110 was added to assay plates. […] Fluorescence was read on the Envision (Excitation at 485 nm and Emission at 535 nm; Perkin Elmer) or on the PheraSTAR (Excitation at 485 nm and Emission at 535 nm; BMG Labtech).
Data from USP7 Assays A and B were reported as percent inhibition (inh) compared with control wells based on the following equation: % inh=1−((FLU−AveLow)/(AveHigh−AveLow)) where FLU=measured Fluorescence (See Tables 6-10). AveLow=average Fluorescence of no enzyme control (n=16). AveHigh=average Fluorescence of DMSO control (n=16). […] Data is fitted using the Levenburg Marquardt algorithm.

T1 sequence (Q93009 208-1102): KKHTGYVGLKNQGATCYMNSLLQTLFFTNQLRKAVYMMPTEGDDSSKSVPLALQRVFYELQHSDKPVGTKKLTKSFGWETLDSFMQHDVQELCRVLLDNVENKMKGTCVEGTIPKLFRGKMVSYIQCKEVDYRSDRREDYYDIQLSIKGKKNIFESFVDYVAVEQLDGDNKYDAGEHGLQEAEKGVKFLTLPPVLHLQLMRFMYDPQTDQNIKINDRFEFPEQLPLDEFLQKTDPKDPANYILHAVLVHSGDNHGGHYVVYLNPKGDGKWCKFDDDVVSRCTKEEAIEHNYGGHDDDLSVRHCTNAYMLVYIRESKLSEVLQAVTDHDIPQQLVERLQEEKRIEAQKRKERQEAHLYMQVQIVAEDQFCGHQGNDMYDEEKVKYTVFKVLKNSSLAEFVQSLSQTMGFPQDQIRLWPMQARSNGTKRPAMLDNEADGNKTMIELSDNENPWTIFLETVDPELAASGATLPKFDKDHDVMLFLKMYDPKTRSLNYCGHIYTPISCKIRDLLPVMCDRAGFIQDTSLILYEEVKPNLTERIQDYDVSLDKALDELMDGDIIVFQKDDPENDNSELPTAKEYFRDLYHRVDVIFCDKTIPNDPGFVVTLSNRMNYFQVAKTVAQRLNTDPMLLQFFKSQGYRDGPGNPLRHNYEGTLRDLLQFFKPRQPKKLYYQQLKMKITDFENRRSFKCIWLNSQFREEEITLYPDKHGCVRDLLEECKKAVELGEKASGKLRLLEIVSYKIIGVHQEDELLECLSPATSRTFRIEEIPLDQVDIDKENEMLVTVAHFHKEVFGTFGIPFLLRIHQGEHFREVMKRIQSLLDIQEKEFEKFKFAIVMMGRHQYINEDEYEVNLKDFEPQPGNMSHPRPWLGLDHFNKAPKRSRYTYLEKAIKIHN

First: O=C(c1ccc(F)cc1F)N1CCC(O)(Cn2cnc3c(cnn3-c3ccccc3)c2=O)CC1 [Compound I-209]
Second: O=C(c1ccc(Cl)cc1Cl)N1CCC(O)(Cn2cnc3c(cnn3-c3ccccc3)c2=O)CC1 [Compound I-224]
The IC50 of the first is higher: 1000 to 10000 nM for the first, 200 to 1000 nM for the second.

Compared with O=C(c1ccc(F)c(Cl)c1)N1CCC(O)(Cn2cnc3c(cnn3-c3ccccc3)c2=O)CC1 [Compound I-210], Cc1ccc(C(=O)N2CCC(O)(Cn3cnc4c(cnn4-c4ccccc4)c3=O)CC2)cc1Cl [Compound I-211] is lower in IC50: 1000 to 10000 nM for the first, 200 to 1000 nM for the second.

Compared with Cc1cc(C(=O)N2CCC(O)(Cn3cnc4c(cnn4-c4ccccc4)c3=O)CC2)ccc1Cl [Compound I-212], O=C(c1ccc(Cl)c(Cl)c1)N1CCC(O)(Cn2cnc3c(cnn3-c3ccccc3)c2=O)CC1 [Compound I-213] is higher in IC50: 200 to 1000 nM for the first, 1000 to 10000 nM for the second. The first is the more potent here.

Compared with COc1ccc(C(=O)N2CCC(O)(Cn3cnc4c(cnn4-c4ccccc4)c3=O)CC2)cc1Cl [Compound I-214], COc1cc(C(=O)N2CCC(O)(Cn3cnc4c(cnn4-c4ccccc4)c3=O)CC2)ccc1Cl [Compound I-226] is higher in IC50: 200 to 1000 nM for the first, 1000 to 10000 nM for the second.

COc1ccc(Cl)cc1C(=O)N1CCC(O)(Cn2cnc3c(cnn3-c3ccccc3)c2=O)CC1 [Compound I-218] and COc1ccc(OC)c(C(=O)N2CCC(O)(Cn3cnc4c(cnn4-c4ccccc4)c3=O)CC2)c1 [Compound I-221] fall in the same range of IC50: 1000 to 10000 nM for the first, 1000 to 10000 nM for the second.

O=C(c1cc(Cl)ccc1Cl)N1CCC(O)(Cn2cnc3c(cnn3-c3ccccc3)c2=O)CC1 [Compound I-223] and Nc1ccc(Cl)cc1C(=O)N1CCC(O)(Cn2cnc3c(cnn3-c3ccccc3)c2=O)CC1 [Compound I-233] fall in the same range of IC50: 200 to 1000 nM for the first, 200 to 1000 nM for the second.

First: Cc1cnc(C(=O)N2CCC(O)(Cn3cnc4c(cnn4-c4ccccc4)c3=O)CC2)cn1 [Compound I-227]
Second: Cc1cc(C(=O)N2CCC(O)(Cn3cnc4c(cnn4-c4ccccc4)c3=O)CC2)nn1C [Compound I-229]
The IC50 of the first is higher: greater than 10000 nM for the first, 1000 to 10000 nM for the second. The second is the more potent here.

First: Cc1nc(C)c(C(=O)N2CCC(O)(Cn3cnc4c(cnn4-c4ccccc4)c3=O)CC2)s1 [Compound I-230]
Second: Nc1cc(Cl)ccc1C(=O)N1CCC(O)(Cn2cnc3c(cnn3-c3ccccc3)c2=O)CC1 [Compound I-232]
The IC50 of the first is higher: 1000 to 10000 nM for the first, 200 to 1000 nM for the second. The second is the more potent here.

First: O=C(c1cnc(-c2ccccc2)o1)N1CCC(O)(Cn2cnc3c(cnn3-c3ccccc3)c2=O)CC1 [Compound I-252]
Second: O=C(c1ccc(Cl)cc1)N1CCC(O)(Cn2cnc3c(cnn3-c3ccccc3)c2=O)CC1 [Compound I-280]
The IC50 of the first is lower: 200 to 1000 nM for the first, 1000 to 10000 nM for the second. The first is the more potent here.

C#CC(=O)NC1CC(C(=O)N2CCC(O)(Cn3cnc4c(cnn4-c4ccccc4)c3=O)CC2)C1 (centres unmarked) [Compound I-259] and CC1(C(=O)N2CCC(O)(Cn3cnc4c(cnn4-c4ccccc4)c3=O)CC2)CC1 [Compound I-271] fall in the same range of IC50: 1000 to 10000 nM for the first, 1000 to 10000 nM for the second.

First: O=C(C1CC1)N1CCC(O)(Cn2cnc3c(cnn3-c3ccc(Cl)cc3Cl)c2=O)CC1 [Compound I-264]
Second: O=C(C1CC1)N1CCC(O)(Cn2cnc3c(cnn3-c3cccc(-c4cccc(Cl)c4)c3)c2=O)CC1 [Compound I-347]
The IC50 of the first is higher: greater than 10000 nM for the first, 1000 to 10000 nM for the second. The second is the more potent here.

O=C(c1ccccc1)N1CCC(O)(Cn2cnc3c(cnn3-c3ccc(F)cc3)c2=O)CC1 [Compound I-266] and O=C(c1cccc(Cl)c1)N1CCC(O)(Cn2cnc3c(cnn3-c3ccc(F)cc3)c2=O)CC1 [Compound I-303] fall in the same range of IC50: 1000 to 10000 nM for the first, 1000 to 10000 nM for the second.

First: COc1ccc(C(=O)N2CCC(O)(Cn3cnc4c(cnn4-c4ccc(F)cc4)c3=O)CC2)cc1 [Compound I-267]
Second: O=C(c1ccc(OC(F)F)cc1)N1CCC(O)(Cn2cnc3c(cnn3-c3ccc(F)cc3)c2=O)CC1 [Compound I-306]
The IC50 of the first is lower: 200 to 1000 nM for the first, 1000 to 10000 nM for the second. The first is the more potent here.

Compared with O=C(c1ccc(F)cc1)N1CCC(O)(Cn2cnc3c(cnn3-c3ccc(F)cc3)c2=O)CC1 [Compound I-268], O=C(c1ccc(Cl)cc1)N1CCC(O)(Cn2cnc3c(cnn3-c3ccc(F)cc3)c2=O)CC1 [Compound I-302, 5-{[1-(4-chlorobenzoyl)-4-hydroxypiperidin-4-yl]methyl}-1-(4-fluorophenyl)-1H,4H,5H-pyrazolo[3,4-d]pyrimidin-4-one] is lower in IC50: 1000 to 10000 nM for the first, 200 to 1000 nM for the second. The second is the more potent here.

O=C(O)c1ccc(C(=O)N2CCC(O)(Cn3cnc4c(cnn4-c4ccccc4)c3=O)CC2)cc1 [Compound I-272] and CC(F)(F)c1ccc(C(=O)N2CCC(O)(Cn3cnc4c(cnn4-c4ccccc4)c3=O)CC2)cc1 [Compound I-294] fall in the same range of IC50: 1000 to 10000 nM for the first, 1000 to 10000 nM for the second.

O=C(c1ccc(OC(F)F)cc1)N1CCC(O)(Cn2cnc3c(cnn3-c3ccccc3)c2=O)CC1 [Compound I-274] and CC(O)(c1ccc(C(=O)N2CCC(O)(Cn3cnc4c(cnn4-c4ccccc4)c3=O)CC2)cc1)C(F)(F)F (centres unmarked) [Compound I-291] fall in the same range of IC50: 1000 to 10000 nM for the first, 1000 to 10000 nM for the second.

O=C(C1CC1)N1CCC(O)(Cn2cnc3c(cnn3-c3ccc(-c4ccccc4)cc3)c2=O)CC1 [Compound I-276] and O=C(C1CC1)N1CCC(O)(Cn2cnc3c(cnn3-c3ccc(-c4cccc(F)c4)cc3)c2=O)CC1 [Compound I-330] fall in the same range of IC50: 1000 to 10000 nM for the first, 1000 to 10000 nM for the second.

O=C(N1CCC(O)(Cn2cnc3c(cnn3-c3ccccc3)c2=O)CC1)C1(C(F)(F)F)CC1 [Compound I-277] and O=C(N1CCC(O)(Cn2cnc3c(cnn3-c3ccccc3)c2=O)CC1)C12CC(C(F)(F)F)(C1)C2 [Compound I-290] fall in the same range of IC50: 1000 to 10000 nM for the first, 1000 to 10000 nM for the second.

CN(C)C(=O)N1CCC(O)(Cn2cnc3c(cnn3-c3ccc(F)cc3)c2=O)CC1 [Compound I-279] and CNC(=O)N1CCC(O)(Cn2cnc3c(cnn3-c3ccc(F)cc3)c2=O)CC1 [Compound I-284, 4-{[1-(4-fluorophenyl)-4-oxo-1H,4H,5H-pyrazolo[3,4-d]pyrimidin-5-yl]methyl}-4-hydroxy-N-methylpiperidine-1-carboxamide] fall in the same range of IC50: 1000 to 10000 nM for the first, 1000 to 10000 nM for the second.

O=C(c1ccccc1)N1CCC(O)(Cn2cnc3c(cnn3-c3cccc(CO)c3)c2=O)CC1 [Compound I-281] and O=C(c1ccnc(Cl)c1)N1CCC(O)(Cn2cnc3c(cnn3-c3ccccc3)c2=O)CC1 [Compound I-287] fall in the same range of IC50: 1000 to 10000 nM for the first, 1000 to 10000 nM for the second.

O=C(c1ccc2c(Cl)ccnc2c1)N1CCC(O)(Cn2cnc3c(cnn3-c3ccccc3)c2=O)CC1 [Compound I-282] and O=C(c1ccc(F)c(F)c1)N1CCC(O)(Cn2cnc3c(cnn3-c3ccc(F)cc3)c2=O)CC1 [Compound I-309] fall in the same range of IC50: 1000 to 10000 nM for the first, 1000 to 10000 nM for the second.

O=C(c1ccc(OC2CC2)cc1)N1CCC(O)(Cn2cnc3c(cnn3-c3ccc(F)cc3)c2=O)CC1 [Compound I-283] and O=C(c1ccc(C2CC2)cc1)N1CCC(O)(Cn2cnc3c(cnn3-c3ccc(F)cc3)c2=O)CC1 [Compound I-304] fall in the same range of IC50: 1000 to 10000 nM for the first, 1000 to 10000 nM for the second.

First: O=C(N1CCC(O)(Cn2cnc3c(cnn3-c3ccccc3)c2=O)CC1)C12CC(C1)C2 [Compound I-289]
Second: O=C(C1CC1)N1CCC(O)(Cn2cnc3c(cnn3-c3ccc(Oc4ccccc4)cc3)c2=O)CC1 [Compound I-296]
The IC50 of the first is lower: 200 to 1000 nM for the first, 1000 to 10000 nM for the second.

Cc1ncoc1C(=O)N1CCC(O)(Cn2cnc3c(cnn3-c3ccc(F)cc3)c2=O)CC1 [Compound I-312] and CN(C)c1ncc(C(=O)N2CCC(O)(Cn3cnc4c(cnn4-c4ccc(F)cc4)c3=O)CC2)o1 [Compound I-315] fall in the same range of IC50: 1000 to 10000 nM for the first, 1000 to 10000 nM for the second.

O=C(c1cnc(C2CC2)o1)N1CCC(O)(Cn2cnc3c(cnn3-c3ccc(F)cc3)c2=O)CC1 [Compound I-314] and O=C(c1ccc(Cl)cc1Cl)N1CCC(O)(Cn2cnc3c(cnn3-c3ccc(F)cc3)c2=O)CC1 [Compound I-317] fall in the same range of IC50: 200 to 1000 nM for the first, 200 to 1000 nM for the second.

O=C(c1ccc(-c2ccc(-n3ncc4c(=O)n(CC5(O)CCN(C(=O)C6CC6)CC5)cnc43)cc2)cc1)N1CCCC1 [Compound I-333] and O=C(C1CC1)N1CCC(O)(Cn2cnc3c(cnn3-c3ccc(-c4cccc(N5CCCC5)c4)cc3)c2=O)CC1 [Compound I-399] fall in the same range of IC50: 1000 to 10000 nM for the first, 1000 to 10000 nM for the second.

CN(C)C(=O)c1ccc(-c2cccc(-n3ncc4c(=O)n(CC5(O)CCN(C(=O)C6CC6)CC5)cnc43)c2)cc1 [Compound I-350] and O=C(C1CC1)N1CCC(O)(Cn2cnc3c(cnn3-c3cccc(-c4cccc(O)c4)c3)c2=O)CC1 [Compound I-385] fall in the same range of IC50: 1000 to 10000 nM for the first, 1000 to 10000 nM for the second.

N#Cc1cccc(-c2cccc(-n3ncc4c(=O)n(CC5(O)CCN(C(=O)C6CC6)CC5)cnc43)c2)c1 [Compound I-359] and O=C(NCCO)c1cccc(-c2cccc(-n3ncc4c(=O)n(CC5(O)CCN(C(=O)C6CC6)CC5)cnc43)c2)c1 [Compound I-409] fall in the same range of IC50: 1000 to 10000 nM for the first, 1000 to 10000 nM for the second.

CN(C)CCOc1ccc(-c2ccc(-n3ncc4c(=O)n(CC5(O)CCN(C(=O)C6CC6)CC5)cnc43)cc2)cc1 [Compound I-369] and O=C(C1CC1)N1CCC(O)(Cn2cnc3c(cnn3-c3ccc(-c4cc(F)ccc4CO)cc3)c2=O)CC1 [Compound I-390] fall in the same range of IC50: 1000 to 10000 nM for the first, 1000 to 10000 nM for the second.

O=C(C1CC1)N1CCC(O)(Cn2cnc3c(cnn3-c3cccc(-c4cncc(F)c4)c3)c2=O)CC1 [Compound I-387] and O=C(C1CC1)N1CCC(O)(Cn2cnc3c(cnn3-c3cccc(-c4cc(F)ccc4CO)c3)c2=O)CC1 [Compound I-403] fall in the same range of IC50: 1000 to 10000 nM for the first, 1000 to 10000 nM for the second.

O=C(C1CC1)N1CCC(O)(Cn2cnc3c(cnn3-c3cccc(-c4cccc5[nH]ccc45)c3)c2=O)CC1 [Compound I-406] and CCN(Cc1ccc(-n2ncc3c(=O)n(CC4(O)CCN(C(=O)C5CC5)CC4)cnc32)cc1)C1CCCCC1 [Compound I-416] fall in the same range of IC50: 1000 to 10000 nM for the first, 1000 to 10000 nM for the second.
